Test results: EP3891153B1, “NAPHTHALIMIDOFURANS FOR APPLICATIONS IN MOLECULAR BIOLOGY” (Univerzita Karlova, 1. Lékarská Fakulta, priority 2018, dated 2020)

Experiment: UV/VIS and fluorescence studies (spectral properties of the probes in four solvents)
Assay type: physicochemical
Conditions: for fluorescence intensities: compared with probes 2 and 4 with pyranone motive; for Absorbance maxima (nm) / Emission maxima (nm): 1 µM or 0,1 µM
Experimental: Spectral properties of fluorescent probes 2, 4, 6, 8 and 10 (2 and 4 are for reference only) Spectral characteristics of probes were obtained by using a UV/VIS and fluorescence studies. The probes were measured in four solvents (DMSO, methanol, ethanol and phosphate buffer). Each LysoSers was at first dissolved in DMSO 1mM stock solution which was diluted to a final concentration 1 µM or 0,1 µM.
All prepared probes have absorption maximum in the ultraviolet range of 350-400 nm and emission maximum in the range of 400 to 450 nm. […] Table 1. Absorption and emission maxima of probes 2, 4, 6, 8 and 10 in different solvents (probes 2 and 4 are for reference only)

SMILES | fluorescence intensities | Absorbance maxima (nm) (solvent DMSO) | Emission maxima (nm) (solvent DMSO) | Absorbance maxima (nm) (solvent EtOH) | Emission maxima (nm) (solvent EtOH) | Absorbance maxima (nm) (solvent MeOH) | Emission maxima (nm) (solvent MeOH) | Absorbance maxima (nm) (solvent PBS) | Emission maxima (nm) (solvent PBS)
CCCCCCN1C(=O)c2cccc3c2c(cc2oc(=O)c(C(=O)NCCN(C)C)cc23)C1=O [Probe 2] | – | 379 nm | 440 nm | 388 nm | 448 nm | 387 nm | 442 nm | 389 nm | 448 nm
CCCCCCN1C(=O)c2cccc3c2c(cc2cc(C(=O)NCCN(C)C)c(=O)oc23)C1=O [Probe 4] | – | 368 nm | 432 nm | 319 nm | 434 nm | 317 nm | 435 nm | 320 nm | 437 nm

More lines, now with the values ahead:

fluorescence intensities | Absorbance maxima (nm) (solvent DMSO) | Emission maxima (nm) (solvent DMSO) | Absorbance maxima (nm) (solvent EtOH) | Emission maxima (nm) (solvent EtOH) | Absorbance maxima (nm) (solvent MeOH) | Emission maxima (nm) (solvent MeOH) | Absorbance maxima (nm) (solvent PBS) | Emission maxima (nm) (solvent PBS) | SMILES
higher fluorescence intensities | 373 nm | 424 nm | 376 nm | 422 nm | 373 nm | 421 nm | 373 nm | 429 nm | CCCCCCN1C(=O)c2cccc3c2c(cc2oc(C(=O)NCCN(C)C)cc23)C1=O [Probe 6]
higher fluorescence intensities | 368 nm | 416 nm | 341 nm | 415 nm | 341 nm | 416 nm | 360 nm | 428 nm | CCCCCCN1C(=O)c2cccc3c2c(cc2cc(C(=O)NCCN(C)C)oc23)C1=O [Probe 8]
higher fluorescence intensities | 377 nm | 435 nm | 365 nm | 410 nm | 372 nm | 420 nm | 377 nm | 431 nm | CN(C)CCNC(=O)c1cc2c(cc3c4c(cccc42)C(=O)N(C)C3=O)o1 [Probe 10]
